Target: CFTR (Homo sapiens, UniProt P13569)
Assay: standard Ussing Chamber Assay for CFTR potentiator activity
Format: cell-based

Sequence of CFTR (P13569 whole entry): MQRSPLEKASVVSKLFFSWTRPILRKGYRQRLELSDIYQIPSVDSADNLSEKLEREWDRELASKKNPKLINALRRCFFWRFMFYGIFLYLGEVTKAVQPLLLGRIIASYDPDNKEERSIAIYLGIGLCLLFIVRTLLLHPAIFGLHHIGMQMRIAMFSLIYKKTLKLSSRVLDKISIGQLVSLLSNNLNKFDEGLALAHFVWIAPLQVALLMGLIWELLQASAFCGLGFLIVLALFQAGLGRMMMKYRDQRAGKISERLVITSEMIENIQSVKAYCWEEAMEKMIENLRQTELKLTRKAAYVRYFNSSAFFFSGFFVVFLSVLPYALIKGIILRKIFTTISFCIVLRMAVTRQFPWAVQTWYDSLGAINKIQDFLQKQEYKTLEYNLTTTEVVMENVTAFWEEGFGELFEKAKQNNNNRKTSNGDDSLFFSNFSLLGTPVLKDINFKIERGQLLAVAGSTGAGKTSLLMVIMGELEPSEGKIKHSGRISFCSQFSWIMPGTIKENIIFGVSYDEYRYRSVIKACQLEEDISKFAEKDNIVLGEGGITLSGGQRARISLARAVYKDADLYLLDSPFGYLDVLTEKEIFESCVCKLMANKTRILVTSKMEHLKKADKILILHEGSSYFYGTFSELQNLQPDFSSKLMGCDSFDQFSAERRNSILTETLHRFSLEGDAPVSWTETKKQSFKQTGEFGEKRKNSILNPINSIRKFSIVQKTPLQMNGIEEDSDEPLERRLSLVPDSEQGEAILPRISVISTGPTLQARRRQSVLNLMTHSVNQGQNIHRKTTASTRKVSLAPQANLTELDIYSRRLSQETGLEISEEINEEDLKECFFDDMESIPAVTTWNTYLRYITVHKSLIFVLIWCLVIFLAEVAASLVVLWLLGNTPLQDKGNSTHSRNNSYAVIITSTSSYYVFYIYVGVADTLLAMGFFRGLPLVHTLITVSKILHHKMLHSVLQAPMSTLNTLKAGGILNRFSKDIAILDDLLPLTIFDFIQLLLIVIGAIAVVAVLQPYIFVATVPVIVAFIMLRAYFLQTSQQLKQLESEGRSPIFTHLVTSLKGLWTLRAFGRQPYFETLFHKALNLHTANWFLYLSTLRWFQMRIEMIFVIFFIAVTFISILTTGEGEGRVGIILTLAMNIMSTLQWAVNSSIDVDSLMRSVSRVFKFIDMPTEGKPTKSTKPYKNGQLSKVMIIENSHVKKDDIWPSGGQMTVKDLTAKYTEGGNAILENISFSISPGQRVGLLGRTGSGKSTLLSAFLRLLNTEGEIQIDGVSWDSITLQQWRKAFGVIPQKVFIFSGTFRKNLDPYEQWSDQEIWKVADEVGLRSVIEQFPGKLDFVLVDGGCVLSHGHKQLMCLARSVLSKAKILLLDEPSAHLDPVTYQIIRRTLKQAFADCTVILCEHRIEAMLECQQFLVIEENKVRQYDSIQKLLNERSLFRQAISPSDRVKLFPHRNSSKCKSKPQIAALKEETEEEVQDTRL

CFTR modulatory activity: confirmed
SMILES: C[C@@H]1CCCCC[C@](O)(C(F)(F)F)C2=NN=C(O2)c2nc(c(C(F)(F)F)cc2N)O1 [(6R,12R)-17-amino-12-methyl-6,15-bis(trifluoromethyl)-13,19-dioxa-3,4,18-triazatricyclo[12.3.1.12,5]nonadeca-1(18),2,4,14,16-pentaen-6-ol]

Reference: US20230373935A1, “MODULATORS OF CYSTIC FIBROSIS TRANSMEMBRANE CONDUCTANCE REGULATOR” (VERTEX PHARMACEUTICALS INCORPORATED, priority 2020, published 2023)
